# From patent US12180185B2, “Compound as protein kinase inhibitor, and pharmaceutical composition comprising thereof” (HK INNO.N Corporation, priority 2018, dated 2024)
# Biological target: JAK1 (Homo sapiens (Human), UniProt P23458)
# Test: Analysis of JAK1 activity inhibitory capacity (ADP-Glo Kinase assay)
# Assay type: biochemical
# Settings: JAK1 enzyme, ATP 250 uM, IRS-1tide substrate, 30° C. 40 minutes, luminescence
# Procedure: Experimental Example 1: Analysis of JAK1 activity inhibitory capacity (ADP-Glo™ Kinase assay)
# An inhibitory effect of the inventive compound on JAK was identified as follows.
# A control material and a test material were prepared through dilution at each concentration by using DMSO. At the same time, ATP (250 uM) and JAK's substrate (JAK1, IRS-1tide 40 ng/mL) were prepared through dilution in kinase buffer (40 mM Tris-HCl pH 7.5, 20 mM MgCl2, 0.5 mg/mL BSA, 50 uM DTT).
# A test drug for each concentration, the substrate, the ATP and JAK enzymes were mixed in an eppendorf tube, and then subjected to reaction in an incubator at 30° C. for 40 minutes.
# ADP-Glo ? reagent included in ADP-Glo™ Kinase Enzyme System (Promega, USA, V9571) was added to each eppendorf tube, and then subjected to reaction in the incubator at 30° C. for 40 minutes.
# A kinase detection reagent included in the ADP-Glo™ Kinase Enzyme System was inserted into the eppendorf tube, after which luminescence was measured by using Wallac Victor 2TM with an integration time set to 1 second, such that an inhibitory capacity of the test material on JAKs phosphorylation was analyzed. A concentration of the compound, at which JAK enzyme activity inhibition occurs 50% compared to the control group, was determined as IC50 (nM) of an inhibitor.
# JAK1, sequence (P23458 whole entry): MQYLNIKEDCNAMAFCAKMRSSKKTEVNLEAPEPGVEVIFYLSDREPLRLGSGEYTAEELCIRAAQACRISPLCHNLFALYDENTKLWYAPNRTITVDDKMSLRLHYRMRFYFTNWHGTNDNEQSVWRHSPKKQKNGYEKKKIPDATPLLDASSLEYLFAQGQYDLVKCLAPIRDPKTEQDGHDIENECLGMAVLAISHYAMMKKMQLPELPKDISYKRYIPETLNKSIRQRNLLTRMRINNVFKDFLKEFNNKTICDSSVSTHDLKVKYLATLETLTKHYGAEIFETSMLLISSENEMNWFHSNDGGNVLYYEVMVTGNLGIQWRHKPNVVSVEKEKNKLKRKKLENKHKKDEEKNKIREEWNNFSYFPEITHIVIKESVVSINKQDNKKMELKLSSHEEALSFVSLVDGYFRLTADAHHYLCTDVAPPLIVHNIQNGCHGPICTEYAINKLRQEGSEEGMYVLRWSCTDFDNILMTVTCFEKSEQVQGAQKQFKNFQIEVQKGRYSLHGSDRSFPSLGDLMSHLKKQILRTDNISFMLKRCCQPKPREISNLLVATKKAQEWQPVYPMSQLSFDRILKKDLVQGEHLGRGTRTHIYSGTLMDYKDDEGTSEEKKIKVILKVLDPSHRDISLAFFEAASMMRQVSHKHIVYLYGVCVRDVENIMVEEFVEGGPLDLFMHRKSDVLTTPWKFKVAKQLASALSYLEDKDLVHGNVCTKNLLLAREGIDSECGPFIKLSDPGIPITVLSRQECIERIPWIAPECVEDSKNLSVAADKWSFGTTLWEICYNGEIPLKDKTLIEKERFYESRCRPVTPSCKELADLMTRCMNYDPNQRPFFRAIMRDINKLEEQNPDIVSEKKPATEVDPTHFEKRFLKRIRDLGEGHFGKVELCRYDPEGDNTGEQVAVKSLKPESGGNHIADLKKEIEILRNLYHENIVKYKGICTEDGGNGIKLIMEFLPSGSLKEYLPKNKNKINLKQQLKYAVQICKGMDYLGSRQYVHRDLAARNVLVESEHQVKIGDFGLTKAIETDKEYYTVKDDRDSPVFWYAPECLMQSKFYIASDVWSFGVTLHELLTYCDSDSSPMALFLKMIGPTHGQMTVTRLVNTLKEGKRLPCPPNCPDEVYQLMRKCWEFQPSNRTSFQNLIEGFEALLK
row,Compound,IC50 [µM]
1,"N#Cc1cc(C(=O)Nc2cccc3c(-c4ccnc(NC(=O)C5CC5)c4)c[nH]c23)ccn1 [Example 35, 2-cyano-N-(3-(2-(cyclopropanecarboxamido)pyridin-4-yl)-1H-indol-7-yl)isonicotin amide]",0.1 to 1
2,"CCc1c[nH]c(C(=O)Nc2cccc3c(-c4ccnc(NC(=O)C5CC5)c4)c[nH]c23)c1 [Example 36, N-(3-(2-(cyclopropanecarboxamido)pyridin-4-yl)-1H-indol-7-yl)-4-ethyl-1H-pyrrole-2-carboxamide]",0.1 to 1
3,"O=C(NCC(F)(F)F)Nc1cccc2c(-c3ccnc(NC(=O)C4CC4)c3)cn(C(=O)NCC(F)(F)F)c12 [Example 37, 3-(2-(cyclopropanecarboxamido)pyridin-4-yl)-N-(2,2,2-trifluoroethyl)-7-(3-(2,2,2-trifluoroethyl)ureido)-1H-indole-1-carboxamide]",> 1
4,"O=C(Nc1cccc2c(-c3ccnc(NC(=O)C4CC4)c3)c[nH]c12)c1cccc(F)c1 [Example 38, N-(3-(2-(cyclopropanecarboxamido)pyridin-4-yl)-1H-indol-7-yl)-3-fluorobenzamide]",0.1 to 1
5,"O=C(NCC(F)(F)F)Nc1cccc2c(-c3ccnc(NC(=O)C4CC4)c3)c[nH]c12 [Example 39, N-(4-(7-(3-(2,2,2-trifluoroethyl)ureido)-1H-indol-3-yl)pyridin-2-yl)cyclopropanecarboxamide]",< 0.1
6,"CC(C)=C(C#N)C(=O)Nc1cccc2c1ccn2-c1ccnc(NC(=O)C2CC2)c1 [Example 40, N-(4-(4-(2-cyano-3-methylbut-2-enamido)-1H-indol-1-yl)pyridin-2-yl)cyclopropanecarboxamide]",0.1 to 1
7,"N#CCC(=O)Nc1cccc2c1ccn2-c1ccnc(NC(=O)C2CC2)c1 [Example 41, N-(4-(4-(2-cyanoacetamido)-1H-indol-1-yl)pyridin-2-yl)cyclopropanecarboxamide]",0.1 to 1
8,"Cc1ncc(C(=O)Nc2cccc3c2ccn3-c2ccnc(NC(=O)C3CC3)c2)s1 [Example 43, N-(1-(2-(cyclopropanecarboxamido)pyridin-4-yl)-1H-indol-4-yl)-2-methylthiazole-5-carboxamide]",> 1
9,"O=C(Nc1cccc2c1ccn2-c1ccnc(NC(=O)C2CC2)c1)c1cc(F)cc(F)c1 [Example 44, N-(1-(2-(cyclopropanecarboxamido)pyridin-4-yl)-1H-indol-4-yl)-3,5-difluorobenzamide]",> 1
10,"Cn1cccc(C(=O)Nc2cccc3c2ccn3-c2ccnc(NC(=O)C3CC3)c2)c1=O [Example 45, N-(1-(2-(cyclopropanecarboxamido)pyridin-4-yl)-1H-indol-4-yl)-1-methyl-2-oxo-1,2-dihydropyridine-3-carboxamide]",> 1
11,"N#C/C(=C/c1cccs1)C(=O)Nc1cccc2c1ccn2-c1ccnc(NC(=O)C2CC2)c1 [Example 46, N-(4-(4-(2-cyano-3-(thiophen-2-yl)acrylamido)-1H-indol-1-yl)pyridin-2-yl)cyclopropanecarboxamide]",> 1
12,"N#Cc1ccc(C(=O)Nc2cccc3c2ccn3-c2ccnc(NC(=O)C3CC3)c2)cc1 [Example 47, 4-cyano-N-(1-(2-(cyclopropanecarboxamido)pyridin-4-yl)-1H-indol-4-yl)benzamide]",> 1
13,"N#C/C(=C\c1ccccc1)C(=O)Nc1cccc2c1ccn2-c1ccnc(NC(=O)C2CC2)c1 [Example 48, N-(4-(4-(2-cyano-3-phenylacrylamido)-1H-indol-1-yl)pyridin-2-yl)cyclopropanecarboxamide]",> 1
14,"Cn1c(C(=O)Nc2cccc3c2ccn3-c2ccnc(NC(=O)C3CC3)c2)cc2ccccc21 [Example 49, N-(1-(2-(cyclopropanecarboxamido)pyridin-4-yl)-1H-indol-4-yl)-1-methyl-1H-indole-2-carboxamide]",> 1
15,"N#CC1(C(=O)Nc2cccc3c2ccn3-c2ccnc(NC(=O)C3CC3)c2)CCOCC1 [Example 50, 4-cyano-N-(1-(2-(cyclopropanecarboxamido)pyridin-4-yl)-1H-indol-4-yl)tetrahydro-2H-pyran-4-carboxamide]",> 1
16,"N#Cc1cc(C(=O)Nc2cccc3c2ccn3-c2ccnc(NC(=O)C3CC3)c2)ccn1 [Example 51, 2-cyano-N-(1-(2-(cyclopropanecarboxamido)pyridin-4-yl)-1H-indol-4-yl)isonicotinamide]",> 1
17,"O=C(Nc1cccc2c1ccn2-c1ccnc(NC(=O)C2CC2)c1)c1ccnc(F)c1 [Example 52, N-(1-(2-(cyclopropanecarboxamido)pyridin-4-yl)-1H-indol-4-yl)-2-fluoroisonicotinamide]",> 1
18,"O=C(Nc1cccc2c1ccn2-c1ccnc(NC(=O)C2CC2)c1)c1ccnc(F)c1F [Example 53, N-(1-(2-(cyclopropanecarboxamido)pyridin-4-yl)-1H-indol-4-yl)-2,3-difluoroisonicotinamide]",0.1 to 1
19,"CC(C#N)C(=O)Nc1cccc2c1ccn2-c1ccnc(NC(=O)C2CC2)c1 (stereo not drawn) [Example 54, N-(4-(4-(2-cyanopropanamido)-1H-indol-1-yl)pyridin-2-yl)cyclopropanecarboxamide]",0.1 to 1
20,"O=C(Nc1cccc2c1ccn2-c1ccnc(NC(=O)C2CC2)c1)c1cc[nH]n1 [Example 55, N-(1-(2-(cyclopropanecarboxamido)pyridin-4-yl)-1H-indol-4-yl)-1H-pyrazole-3-carboxamide]",> 1
21,"COc1ccc(C(=O)Nc2cccc3c2ccn3-c2ccnc(NC(=O)C3CC3)c2)cc1F [Example 56, N-(1-(2-(cyclopropanecarboxamido)pyridin-4-yl)-1H-indol-4-yl)-3-fluoro-4-methoxybenzamide]",0.1 to 1
22,"N#C[C@H]1C[C@H]1C(=O)Nc1cccc2c1ccn2-c1ccnc(NC(=O)C2CC2)c1 [Example 57, (1R,2S)-2-cyano-N-(1-(2-(cyclopropanecarboxamido)pyridin-4-yl)-1H-indol-4-yl) cyclopropane-1-carboxamide]",< 0.1
23,"N#CC1(CC(=O)Nc2cccc3c2ccn3-c2ccnc(NC(=O)C3CC3)c2)CC1 [Example 58, N-(4-(4-(2-(1-cyanocyclopropyl)acetamido)-1H-indol-1-yl)pyridin-2-yl)cyclopropane carboxamide]",0.1 to 1
24,"Cc1ccc(C(=O)Nc2cccc3c2ccn3-c2ccnc(NC(=O)C3CC3)c2)cn1 [Example 59, N-(1-(2-(cyclopropanecarboxamido)pyridin-4-yl)-1H-indol-4-yl)-6-methylnicotinamide]",> 1
25,"CC(C)=C(C)C(=O)Nc1cccc2c1ccn2-c1ccnc(NC(=O)C2CC2)c1 [Example 60, N-(4-(4-(2,3-dimethylbut-2-enamido)-1H-indol-1-yl)pyridin-2-yl)cyclopropanecarboxamide]",> 1
26,"O=C(Nc1ccc(F)cc1F)Nc1cccc2c1ccn2-c1ccnc(NC(=O)C2CC2)c1 [Example 61, N-(4-(4-(3-(2,4-difluorophenyl)ureido)-1H-indol-1-yl)pyridin-2-yl)cyclopropanecarboxamide]",> 1
27,"O=C(NCC(F)(F)F)Nc1cccc2c1ccn2-c1ccnc(NC(=O)C2CC2)c1 [Example 62, N-(4-(4-(3-(2,2,2-trifluoroethyl)ureido)-1H-indol-1-yl)pyridin-2-yl)cyclopropanecarboxamide]",< 0.1
